Read-outs that look alike come from different tables or passages of the source.
Test system: test plant species
Assay: Post-emergent herbicidal activity test (greenhouse, foliar spray, visual growth reduction)
Format: in vivo
Details: post-emergence, 336 h, 140 g ai/ha
Method in brief: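 Plants grown in greenhouse (15 h photoperiod, 23-29° C day/22-28° C night) to first or second true leaf stage were sprayed overhead with compound in acetone/water/isopropanol/DMSO/crop oil/X-77 carrier at 187 L/ha. Injury was scored visually after 14 d on a 0-100% scale versus solvent-blank and untreated controls.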

[1] = ALOMY: blackgrass (Alopecurus myosuroides), 14 days after application, read-out: Visual Growth Reduction (%) 14 Days After Application, ALOMY
[2] = AMARE: redroot pigweed (Amaranthus retroflexus), 14 days after application, read-out: Visual Growth Reduction (%) 14 Days After Application, AMARE
[3] = AVEFA: wild oat (Avena fatua), 14 days after application, read-out: Visual Growth Reduction (%) 14 Days After Application, AVEFA
[4] = CHEAL: lambsquarters (Chenopodium album), 14 days after application, read-out: Visual Growth Reduction (%) 14 Days After Application, CHEAL
[5] = CIRAR: canada thistle (Cirsium arvense), 14 days after application, read-out: Visual Growth Reduction (%) 14 Days After Application, CIRAR
[6] = CYPES: yellow nutsedge (Cyperus esculentus), 14 days after application, read-out: Visual Growth Reduction (%) 14 Days After Application, CYPES
[7] = DIGSA: crabgrass (Digitaria sanguinalis), 14 days after application, read-out: Visual Growth Reduction (%) 14 Days After Application, DIGSA
[8] = ECHCG: barnyardgrass (Echinochloa crus-galli), 14 days after application, read-out: Visual Growth Reduction (%) 14 Days After Application, ECHCG
[9] = KCHSC: kochia (Bassia scoparia), 14 days after application, read-out: Visual Growth Reduction (%) 14 Days After Application, KCHSC
[10] = ORYSA: rice (Oryza sativa), 14 days after application, read-out: Visual Growth Reduction (%) 14 Days After Application, ORYSA
[11] = SETFA: giant foxtail (Setaria faberi), 14 days after application, read-out: Visual Growth Reduction (%) 14 Days After Application, SETFA
[12] = SORVU: grain sorghum (Sorghum vulgare), 14 days after application, read-out: Visual Growth Reduction (%) 14 Days After Application, SORVU
[13] = STEME: common chickweed (Stellaria media), 14 days after application, read-out: Visual Growth Reduction (%) 14 Days After Application, STEME
[14] = TRZAS: wheat, spring (Triticum aestivum), 14 days after application, read-out: Visual Growth Reduction (%) 14 Days After Application, TRZAS
[15] = IPOHE: ivy-leaf morning glory (Ipomoea hederacea), 14 days after application, read-out: Visual Growth Reduction (%) 14 Days After Application, IPOHE
[16] = blackgrass (Alopecurus myosuroides), 14 Days After Application, read-out: Visual Growth Reduction (%) ALOMY
[17] = canada thistle (Cirsium arvense), 14 Days After Application, read-out: Visual Growth Reduction (%) CIRAR
[18] = crabgrass (Digitaria sanguinalis), 14 Days After Application, read-out: Visual Growth Reduction (%) DIGSA
[19] = lambsquarters (Chenopodium album), 14 Days After Application, read-out: Visual Growth Reduction (%) CHEAL
[20] = redroot pigweed (Amaranthus retroflexus), 14 Days After Application, read-out: Visual Growth Reduction (%) AMARE
[21] = wild oat (Avena fatua), 14 Days After Application, read-out: Visual Growth Reduction (%) AVEFA
[22] = yellow nutsedge (Cyperus esculentus), 14 Days After Application, read-out: Visual Growth Reduction (%) CYPES

| SMILES | pest or weed control at 140 g/ha [1] | pest or weed control at 140 g/ha [2] | pest or weed control at 140 g/ha [3] | pest or weed control at 140 g/ha [4] | pest or weed control at 140 g/ha [5] | pest or weed control at 140 g/ha [6] | pest or weed control at 140 g/ha [7] | pest or weed control at 140 g/ha [8] | pest or weed control at 140 g/ha [9] | pest or weed control at 140 g/ha [10] | pest or weed control at 140 g/ha [11] | pest or weed control at 140 g/ha [12] | pest or weed control at 140 g/ha [13] | pest or weed control at 140 g/ha [14] | pest or weed control at 140 g/ha [15] | pest or weed control at 140 g/ha [16] | pest or weed control at 140 g/ha [17] | pest or weed control at 140 g/ha [18] | pest or weed control at 140 g/ha [19] | pest or weed control at 140 g/ha [20] | further results |
| --- | --- | --- | --- | --- | --- | --- | --- | --- | --- | --- | --- | --- | --- | --- | --- | --- | --- | --- | --- | --- | --- |
| C#CCOC(=O)c1nc(-c2ccc(C(F)(F)F)cc2Cl)ccc1Cl [F45, prop-2-yn-1-yl 3-chloro-6-(2-chloro-4-(trifluoromethyl)phenyl)picolinate] | 30 to 44% | 95 to 100% | 45 to 59% | 95 to 100% | 95 to 100% | 0 to 29% | 95 to 100% | 30 to 44% | 85 to 94% | 60 to 74% | 85 to 94% | 85 to 94% | 75 to 84% | 85 to 94% | – | – | – | – | – | – | – |
| COCC(F)(F)c1ccc(-c2ccc(Cl)c(C(=O)OC)n2)c(Cl)c1 [F177, methyl 3-chloro-6-(2-chloro-4-(1,1-difluoro-2-methoxyethyl)phenyl)picolinate] | 0 to 29% | 0 to 29% | 0 to 29% | 60 to 74% | 45 to 59% | 0 to 29% | 0 to 29% | 0 to 29% | 45 to 59% | 0 to 29% | 0 to 29% | 30 to 44% | 0 to 29% | 0 to 29% | 60 to 74% | – | – | – | – | – | – |
| COC(=O)c1nc(-c2cc(Br)c(C(F)(F)F)cc2Cl)ccc1Cl [F151, Methyl 6-(5-bromo-2-chloro-4-(trifluoromethyl)phenyl)-3-chloropicolinate] | 0 to 29% | 95 to 100% | 0 to 29% | 95 to 100% | 45 to 59% | 0 to 29% | 0 to 29% | 0 to 29% | 45 to 59% | 0 to 29% | 0 to 29% | 95 to 100% | 0 to 29% | 0 to 29% | 95 to 100% | – | – | – | – | – | – |
| COC(=O)c1nc(-c2cc3c(cc2F)OC(F)(F)O3)c(Cl)cc1Cl [F174, Methyl 3,5-dichloro-6-(2,2,6-trifluorobenzo[d] [1,3]dioxol-5-yl)picolinate] | 0 to 29% | 85 to 94% | 0 to 29% | 85 to 94% | 0 to 29% | 0 to 29% | 85 to 94% | 0 to 29% | 0 to 29% | 0 to 29% | 30 to 44% | 85 to 94% | 0 to 29% | 0 to 29% | 95 to 100% | – | – | – | – | – | – |
| COC(=O)c1nc(-c2ccc(OC(F)(F)F)cc2OC)c(F)cc1Cl [F215, Methyl 3-chloro-5-fluoro-6-(2-methoxy-4-(trifluoromethoxy)phenyl)picolinate] | – | – | – | – | – | – | – | 85 to 94% | 75 to 84% | 0 to 29% | 95 to 100% | 95 to 100% | 30 to 44% | 45 to 59% | 95 to 100% | 0 to 29% | 85 to 94% | 45 to 59% | 85 to 94% | 85 to 94% | pest or weed control at 140 g/ha [21]: 60 to 74%; pest or weed control at 140 g/ha [22]: 0 to 29% |
| C=Cc1cc(C(F)(F)F)cc(Cl)c1-c1ccc(Cl)c(C(=O)OC)n1 [F216, methyl 3-chloro-6-(2-chloro-4-(trifluoromethyl)-6-vinylphenyl)picolinate] | – | – | – | – | – | – | – | 0 to 29% | 30 to 44% | 0 to 29% | 60 to 74% | 60 to 74% | 0 to 29% | 45 to 59% | 95 to 100% | 0 to 29% | 60 to 74% | 0 to 29% | 95 to 100% | 30 to 44% | pest or weed control at 140 g/ha [21]: 0 to 29%; pest or weed control at 140 g/ha [22]: 0 to 29% |
| COC(=O)c1nc(-c2ccc(C(F)(F)F)cc2Cl)c(C)cc1Cl [F5] | 0 to 29% | 0 to 29% | 0 to 29% | 45 to 59% | 0 to 29% | 30 to 44% | 0 to 29% | – | – | – | – | – | – | – | – | – | – | – | – | – | pest or weed control at 140 g/ha (barnyardgrass (Echinochloa crus-galli), 14 Days After Application, read-out: Visual Growth Reduction (%) ECHCG): 0 to 29%; pest or weed control at 140 g/ha (giant foxtail (Setaria faberi), 14 Days After Application, read-out: Visual Growth Reduction (%) SETFA): 0 to 29%; pest or weed control at 140 g/ha (ivy-leaf morning glory (Ipomoea hederacea), 14 Days After Application, read-out: Visual Growth Reduction (%) IPOHE): 30 to 44%; pest or weed control at 140 g/ha (johnsongrass (Sorghum vulgare), 14 Days After Application, read-out: Visual Growth Reduction (%) SORVU): 30 to 44%; pest or weed control at 140 g/ha (kochia (Bassia scoparia), 14 Days After Application, read-out: Visual Growth Reduction (%) KCHSC): 30 to 44%; pest or weed control at 140 g/ha (rice (Oryza sativa), 14 Days After Application, read-out: Visual Growth Reduction (%) ORYSA): 0 to 29%; pest or weed control at 140 g/ha (wheat, spring (Triticum aestivum), 14 Days After Application, read-out: Visual Growth Reduction (%) TRZAS): 0 to 29% |
| COC(=O)c1nc(-c2ccc(Cl)c(C(C)F)c2Cl)ccc1Cl (stereo not shown) [F282, Methyl 3-chloro-6-(2,4-dichloro-3-(1-fluoroethyl)phenyl) picolinate] | – | – | – | – | – | – | – | 0 to 29% | 0 to 29% | 0 to 29% | 0 to 29% | 0 to 29% | 0 to 29% | 0 to 29% | 45 to 59% | 0 to 29% | 60 to 74% | 0 to 29% | 85 to 94% | 45 to 59% | pest or weed control at 140 g/ha [21]: 0 to 29%; pest or weed control at 140 g/ha [22]: 0 to 29% |
| COC(=O)c1nc(-c2ccc(C#N)cc2OC)c(F)cc1Cl [F351, Methyl 3-chloro-6-(4-cyano-2-methoxyphenyl)-5-fluoropicolinate] | – | – | – | – | – | – | – | 30 to 44% | 30 to 44% | 0 to 29% | 75 to 84% | 75 to 84% | 0 to 29% | 0 to 29% | 95 to 100% | 0 to 29% | 0 to 29% | 30 to 44% | 75 to 84% | 60 to 74% | pest or weed control at 140 g/ha [21]: 0 to 29%; pest or weed control at 140 g/ha [22]: 0 to 29% |

From patent publication US20230017045A1, “PYRIDINE AND PYRIMIDINE CARBOXYLATE HERBICIDES AND METHODS OF USE THEREOF” (Dow AgroSciences LLC, priority 2017, published 2023)
